Data published in patent US20110015067A1, “Herbicidal Compositions Comprising Pyroxasulfone” (BASF SE, priority 2008, published 2011).
Like-named read-outs stand apart in the source and are kept apart here.

How the values were obtained:
Type in all cases: in vivo
[1] = system: LOLMU (Lolium multiflorum); assay: pre-emergence greenhouse test; conditions: for observed activity in % destruction: pre-emergence
Summary of the method: (§1)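 Herbicide A and safener were formulated as 10% by weight suspension concentrates, herbicide B as commercial product, all diluted in water and sprayed onto soil just after sowing. Percent damage compared with untreated controls was recorded 8 and/or 20 DAT.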

[2] = system: DIGSA (Digitaria sanguinalis); assay: pre-emergence greenhouse test; conditions: DIGSA pre-emergence 25 g ai/ha
Summary of the method: as §1

[3] = system: BRAPL (Brachiaria plantaginea); assay: pre-emergence greenhouse test; conditions: for observed activity in % destruction: pre-emergence
Summary of the method: as §1

[4] = system: AMARE (Amaranthus retroflexus); assay: pre-emergence greenhouse test; conditions: for inhibition at 12.5 g/ha: Amaranthus retroflexus, use rate 12.5 g ai/ha, read-out: observed % activity; for inhibition at 12.5 g/ha / observed activity in % destruction: pre-emergence
Summary of the method: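 Compounds suspended or emulsified in water were sprayed through fine nozzles directly after sowing, then pots were gently irrigated and kept under transparent hoods until rooting. Herbicidal effect of solo compounds and mixtures was rated 8 and/or 20 days after treatment on a 0–100% damage scale versus untreated controls.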

[5] = system: ALOMY (Alopecurus myosuroides); assay: pre-emergence greenhouse test; conditions: for observed activity in % destruction: pre-emergence
Summary of the method: as §1

[6] = system: LOLMU (Lolium multiflorum); assay: post-emergence greenhouse test; conditions: 50 g ai/ha
From the text: (§2) For the post-emergence treatment, the test plants were first grown to a height of 3 to 20 cm, depending on the plant habit, and only then treated. Here, the herbicidal compositions were suspended or emulsified in water as distribution medium and sprayed using finely distributing nozzles.
(§3) The respective herbicides A and/or safener were formulated as 10% by weight strength suspension concentrate and introduced to the spray liquor with the amount of solvent system used for applying the active compound. Herbicide B and/or safener were used as commercially available formulations and introduced to the spray liquor with the amount of solvent system used for applying the active compound. In the examples, the solvent used was water.
(§4) The test period extended over 20 days. During this time, the plants were tended, and their response to the treatments with active compound was evaluated.
(§5) In the following experiments, the herbicidal activity for the individual herbicide compounds (solo application) and of the mixture was assessed 8 days after treatment (8 DAT) and/or 20 days after treatment (20 DAT).
(§6) The evaluation for the damage caused by the chemical compositions was carried out using a scale from 0 to 100%, compared to the untreated control plants. Here, 0 means no damage and 100 means complete destruction of the plants.

[7] = system: COMBE (Commelina benghalensis); assay: post-emergence greenhouse test; conditions: read-out: observed % activity; for inhibition at 6.25 g/ha: Table 18, use rate 6.25 g ai/ha; for inhibition at 12.5 g/ha: Table 20, use rate 12.5 g ai/ha
From the text: as §2, §3, §4, §5, §6

ELEIN (Eleusine indica) = assay: post-emergence greenhouse test; conditions: use rate 6.25 g ai/ha, read-out: observed % activity
From the text: as §2, §3, §4, §5, §6

[8] = system: BRAPL (Brachiaria plantaginea); assay: post-emergence greenhouse test; conditions: Urochloa plantaginea, read-out: observed % activity; for inhibition at 6.25 g/ha: use rate 6.25 g ai/ha; for inhibition at 12.5 g/ha: use rate 12.5 g ai/ha
From the text: as §2, §3, §4, §5, §6

[9] = system: ECHCG (Echinochloa crus-galli); assay: post-emergence greenhouse test; conditions: use rate 6.25 g ai/ha, read-out: observed % activity
From the text: as §2, §3, §4, §5, §6

[10] = system: PANDI (Panicum dichotomiflorum); assay: post-emergence greenhouse test; conditions: use rate 25 g ai/ha, read-out: observed % activity
From the text: as §2, §3, §4, §5, §6

[11] = system: MERAN (Mercurialis annua); assay: post-emergence greenhouse test; conditions: for observed activity in % destruction: 50 g ai/ha; for inhibition at 50 g/ha: Mercurialis annua, use rate 50 g ai/ha, read-out: observed % activity
From the text: as §2, §3, §4, §5, §6

[12] = system: AMBEL (Ambrosia artemisifolia); assay: post-emergence greenhouse test; conditions: for observed activity in % destruction: 25 g ai/ha; for inhibition at 50 g/ha: Ambrosia, use rate 50 g ai/ha, read-out: observed % activity
From the text: as §2, §3, §4, §5, §6

ERBVI = assay: post-emergence greenhouse test; conditions: use rate 12.5 g ai/ha, read-out: observed % activity
From the text: as §2, §3, §4, §5, §6

[13] = system: CHEAL (Chenopodium album); assay: post-emergence greenhouse test; conditions: for inhibition at 6.25 g/ha / inhibition at 25 g/ha / inhibition at 50 g/ha: Chenopodium album, read-out: observed % activity; for inhibition at 6.25 g/ha: use rate 6.25 g ai/ha; for inhibition at 25 g/ha: use rate 25 g ai/ha; for inhibition at 50 g/ha: use rate 50 g ai/ha
From the text: as §2, §3, §4, §5, §6

[14] = system: ABUTH (Abutilon theophrasti); assay: post-emergence greenhouse test; conditions: use rate 6.25 g ai/ha, read-out: observed % activity
From the text: as §2, §3, §4, §5, §6

[15] = BRAPL pre-emergence 6.25 g ai/ha
[16] = BRAPL pre-emergence 12.5 g ai/ha

In the case of `Cn1nc(C(F)(F)F)c(CS(=O)(=O)C2=NOC(C)(C)C2)c1OC(F)F` [pyroxasulfone, 3-[5-(difluoromethoxy)-1-methyl-3-(trifluoromethyl)pyrazol-4-ylmethylsulfonyl]-4,5-dihydro-5,5-dimethyl-1,2-oxazole], the “observed % destruction 20 DAT” value ([1]; LOLMU pre-emergence 6.25 g ai/ha) is reported as 50%, the “observed % destruction 20 DAT” value ([1]; LOLMU pre-emergence 12.5 g ai/ha) is reported as 65% and the “observed % destruction 20 DAT” value ([1]; LOLMU pre-emergence 50 g ai/ha) is reported as 98%. The “observed activity in % destruction” value ([1]; 6.25 g ai/ha, 8 DAT) was 40%, the “observed activity in % destruction” value ([1]; 6.25 g ai/ha, 20 DAT) was 50% and the “observed activity in % destruction” value ([1]; 12.5 g ai/ha, 8 DAT) was 50%. The “observed activity in % destruction” value ([1]; 12.5 g ai/ha, 20 DAT) was 65%, the “observed activity in % destruction” value ([1]; 50 g ai/ha, 8 DAT) was 90% and the “observed activity in % destruction” value ([1]; 50 g ai/ha, 20 DAT) was 98%. For the same compound, the “observed % destruction 8 DAT” value [2] was 90%, the “observed % destruction 20 DAT” value [2] was 100% and the “observed % destruction 8 DAT” value [3, 15] was 30%. For the same compound, the “observed % destruction 20 DAT” value [3, 15] was 70%, the “observed % destruction 8 DAT” value [3, 16] was 35% and the “observed % destruction 20 DAT” value [3, 16] was 80%. The “observed % destruction 8 DAT” value ([3]; BRAPL pre-emergence 25 g ai/ha) was 60%, the “observed % destruction 20 DAT” value ([3]; BRAPL pre-emergence 25 g ai/ha) was 95% and the “observed % destruction 20 DAT” value ([3]; BRAPL pre-emergence 50 g ai/ha) was 98%. For the same compound, the “observed activity in % destruction” value ([3]; 12.5 g ai/ha, 8 DAT) was 35%, the “observed activity in % destruction” value ([3]; 12.5 g ai/ha, 20 DAT) was 80% and the “observed activity in % destruction” value ([3]; 25 g ai/ha, 8 DAT) was 60%. For the same compound, the “observed activity in % destruction” value ([3]; 25 g ai/ha, 20 DAT) was 95%, the “observed activity in % destruction” value ([3]; 50 g ai/ha, 8 DAT) was 70% and the “observed activity in % destruction” value ([3]; 50 g ai/ha, 20 DAT) was 98%. The “observed % destruction 20 DAT” value ([4]; AMARE pre-emergence 12.5 g ai/ha) was 95%, the “observed % destruction 8 DAT” value ([4]; AMARE pre-emergence 25 g ai/ha) was 80% and the “observed % destruction 20 DAT” value ([4]; AMARE pre-emergence 25 g ai/ha) was 100%. The inhibition at 12.5 g/ha ([4]; 192 h, 8 DAT) was 80%, the inhibition at 12.5 g/ha ([4]; 480 h, 20 DAT) was 95% and the “observed activity in % destruction” value ([4]; 12.5 g ai/ha, 8 DAT) was 80%. For the same compound, the “observed activity in % destruction” value ([4]; 12.5 g ai/ha, 20 DAT) was 95%, the “observed activity in % destruction” value ([4]; 25 g ai/ha, 8 DAT) was 80% and the “observed activity in % destruction” value ([4]; 25 g ai/ha, 20 DAT) was 100%. The “observed activity in % destruction” value ([4]; 50 g ai/ha, 8 DAT) was 90%, the “observed activity in % destruction” value ([4]; 50 g ai/ha, 20 DAT) was 100% and the “observed % destruction 20 DAT” value ([5]; ALOMY pre-emergence 6.25 g ai/ha) was 90%. For the same compound, the “observed % destruction 20 DAT” value ([5]; ALOMY pre-emergence 12.5 g ai/ha) was 98%, the “observed % destruction 20 DAT” value ([5]; ALOMY pre-emergence 25 g ai/ha) was 98% and the “observed % destruction 8 DAT” value ([5]; ALOMY pre-emergence 50 g ai/ha) was 85%. The “observed % destruction 20 DAT” value ([5]; ALOMY pre-emergence 50 g ai/ha) was 98%, the “observed activity in % destruction” value ([5]; 12.5 g ai/ha, 8 DAT) was 70% and the “observed activity in % destruction” value ([5]; 12.5 g ai/ha, 20 DAT) was 98%. For the same compound, the “observed activity in % destruction” value ([5]; 25 g ai/ha, 8 DAT) was 80%, the “observed activity in % destruction” value ([5]; 25 g ai/ha, 20 DAT) was 98% and the “observed activity in % destruction” value ([5]; 50 g ai/ha, 8 DAT) was 85%. For the same compound, the “observed activity in % destruction” value ([5]; 50 g ai/ha, 20 DAT) was 98%, the “observed activity in % destruction” value ([6]; 8 DAT) was 60% and the “observed activity in % destruction” value ([6]; 20 DAT) was 80%. It also gave an inhibition at 6.25 g/ha ([7]; 192 h, 8 DAT) of 20%, an inhibition at 12.5 g/ha ([7]; 192 h, 8 DAT) of 30% and an inhibition at 6.25 g/ha ([7]; 480 h, 20 DAT) of 20%. For the same compound, the inhibition at 12.5 g/ha ([7]; 480 h, 20 DAT) was 40%, the inhibition at 6.25 g/ha (ELEIN (Eleusine indica); 192 h, 8 DAT) was 55% and the inhibition at 6.25 g/ha (ELEIN (Eleusine indica); 480 h, 20 DAT) was 90%. For the same compound, the inhibition at 6.25 g/ha ([8]; 192 h, 8 DAT) was 20%, the inhibition at 12.5 g/ha ([8]; 192 h, 8 DAT) was 30% and the inhibition at 6.25 g/ha ([8]; 480 h, 20 DAT) was 40%. The inhibition at 12.5 g/ha ([8]; 480 h, 20 DAT) was 45%, the inhibition at 6.25 g/ha ([9]; 192 h, 8 DAT) was 30% and the inhibition at 6.25 g/ha ([9]; 480 h, 20 DAT) was 80%. The inhibition at 25 g/ha ([10]; 192 h, 8 DAT) was 60%, the inhibition at 25 g/ha ([10]; 480 h, 20 DAT) was 85% and the “observed activity in % destruction” value ([11]; 8 DAT) was 45%. The “observed activity in % destruction” value ([11]; 20 DAT) was 85%, the inhibition at 50 g/ha ([11]; 192 h, 8 DAT) was 45% and the inhibition at 50 g/ha ([11]; 480 h, 20 DAT) was 85%. The “observed activity in % destruction” value ([12]; 8 DAT) was 50%, the “observed activity in % destruction” value ([12]; 20 DAT) was 40% and the inhibition at 50 g/ha ([12]; 192 h, 8 DAT) was 50%. The inhibition at 50 g/ha ([12]; 480 h, 20 DAT) was 70%, the inhibition at 12.5 g/ha (ERBVI; 192 h, 8 DAT) was 40% and the inhibition at 12.5 g/ha (ERBVI; 480 h, 20 DAT) was 75%. The “observed activity in % destruction” value ([13]; 6.25 g ai/ha, 8 DAT) was 0%, the “observed activity in % destruction” value ([13]; 6.25 g ai/ha, 20 DAT) was 0% and the “observed activity in % destruction” value ([13]; 12.5 g ai/ha, 8 DAT) was 20%. For the same compound, the “observed activity in % destruction” value ([13]; 12.5 g ai/ha, 20 DAT) was 30%, the “observed activity in % destruction” value ([13]; 25 g ai/ha, 8 DAT) was 35% and the “observed activity in % destruction” value ([13]; 25 g ai/ha, 20 DAT) was 30%. The “observed activity in % destruction” value ([13]; 50 g ai/ha, 8 DAT) was 45%, the “observed activity in % destruction” value ([13]; 50 g ai/ha, 20 DAT) was 60% and the inhibition at 6.25 g/ha ([13]; 192 h, 8 DAT) was 0%. For the same compound, the inhibition at 25 g/ha ([13]; 192 h, 8 DAT) was 35%, the inhibition at 50 g/ha ([13]; 192 h, 8 DAT) was 45% and the inhibition at 6.25 g/ha ([13]; 480 h, 20 DAT) was 0%. It also gave an inhibition at 25 g/ha ([13]; 480 h, 20 DAT) of 30%, an inhibition at 50 g/ha ([13]; 480 h, 20 DAT) of 60% and an inhibition at 6.25 g/ha ([14]; 192 h, 8 DAT) of 40%. It also gave an inhibition at 6.25 g/ha ([14]; 480 h, 20 DAT) of 40%.
